# From US11384090B2, “Spiropyrrolidine derived antiviral agents” (priority 2020, dated 2022)
# Test system: 229E human corona virus (hCoV)
# Assay: 229E live virus assay
# Assay type: cell-based, hCoV-229E
# Settings: Human coronavirus 229E, MRC5, 144 h, read-out: 229E EC50
row,SMILES,EC50 [nM]
1,CN(C(=O)c1cc2c(F)cc(F)cc2[nH]1)[C@@H](Cc1ccccc1)C(=O)N1C[C@]2(C[C@H]1C#N)C(=O)Nc1ccccc12 [Compound 81],< 100

# Same assay, conditions: MRC-5 cells, MOI 0.05, 6 days at 34° C., ATPlite readout, run in duplicate; read-out: 229E EC50
row,SMILES,EC50 [nM]
1,CC(C)C[C@H](NC(=O)OCc1ccccc1)C(=O)N1C[C@]2(C[C@H]1C#N)C(=O)Nc1ccccc12 [Compound 1],100 to 1000
2,COc1cccc2[nH]c(C(=O)N[C@@H](CC(C)C)C(=O)N3C[C@]4(C[C@H]3C#N)C(=O)Nc3ccccc34)cc12 [Compound 11],< 100
3,COc1cccc2[nH]c(C(=O)N[C@H](CC(C)C)C(=O)N3C[C@]4(C[C@H]3C#N)C(=O)Nc3ccccc34)cc12 [Compound 12],100 to 1000
4,COc1cccc2[nH]c(C(=O)N[C@H](CC(C)(C)C)C(=O)N3C[C@]4(C[C@H]3C#N)C(=O)Nc3ccccc34)cc12 [Compound 16],100 to 1000
5,COc1cccc2[nH]c(C(=O)N[C@@H](CC3CCC3)C(=O)N3C[C@]4(C[C@H]3C#N)C(=O)Nc3ccccc34)cc12 [Compound 17],< 100
6,COc1cccc2[nH]c(C(=O)N[C@@H](CC(C)C)C(=O)N3C[C@]4(C[C@H]3C=O)C(=O)Nc3ccccc34)cc12 [Compound 23],< 100
7,COc1cccc2[nH]c(C(=O)N[C@@H](CC(C)C)C(=O)N3C[C@]4(C[C@H]3C(=O)C(=O)NC3CC3)C(=O)Nc3ccccc34)cc12 [Compound 31],100 to 1000
8,CC(C)C[C@@H](C(=O)N1C[C@]2(C[C@H]1C#N)C(=O)Nc1ccccc12)N(C)C(=O)OCc1ccccc1 [Compound 39],> 1000
9,CN(C(=O)OCc1ccccc1)[C@@H](CC1CCC1)C(=O)N1C[C@]2(C[C@H]1C#N)C(=O)Nc1ccccc12 [Compound 89],100 to 1000
10,CN(C(=O)c1cc2c(F)cc(F)cc2[nH]1)[C@@H](CC1CCC1)C(=O)N1C[C@]2(C[C@H]1C#N)C(=O)Nc1ccccc12 [Compound 91],< 100
11,C=CCN(C(=O)OCc1ccccc1)[C@@H](CC(C)C)C(=O)N1C[C@]2(C[C@H]1C#N)C(=O)Nc1ccccc12 [Compound 96],100 to 1000
12,CCCN(C(=O)OCc1ccccc1)[C@@H](CC(C)C)C(=O)N1C[C@]2(C[C@H]1C#N)C(=O)Nc1ccccc12 [Compound 97],> 1000
13,CCCN(C(=O)c1cc2c(F)cccc2[nH]1)[C@@H](CC(C)C)C(=O)N1C[C@]2(C[C@H]1C#N)C(=O)Nc1ccccc12 [Compound 98],100 to 1000
14,CC(C)CC[C@@H](C(=O)N1C[C@]2(C[C@H]1C#N)C(=O)Nc1ccccc12)N(C)C(=O)c1cc2c(F)cc(F)cc2[nH]1 [Compound 104],< 100

# Target: SARS-CoV-2 3CL-protease (Severe acute respiratory syndrome coronavirus 2 (2019-nCoV) (SARS-CoV-2), UniProt P0DTD1)
# Assay: biochemical
# Settings: read-out: FRET IC50
row,SMILES,IC50 [nM]
1,CC(C)(C)C[C@H](NC(=O)c1cc2c(F)cccc2[nH]1)C(=O)N1C[C@]2(C[C@H]1C#N)C(=O)Nc1ccccc12 [Compound 21],< 100
2,CC(C)C[C@@H](C(=O)N1C[C@]2(C[C@H]1C=O)C(=O)Nc1ccccc12)N(C)C(=O)OCc1ccccc1 [Compound 24],100 to 1000
3,CN(C(=O)OCc1ccccc1)[C@@H](Cc1ccccc1)C(=O)N1C[C@]2(C[C@H]1C#N)C(=O)Nc1ccccc12 [Compound 41],< 100
